Assay results: patent publication US12344610B2, “APOL1 inhibitors and methods of use” (Maze Therapeutics, Inc., priority 2022, dated 2025)
pEC50: −log10 of the molar value. Where two headings read alike, the source gives them in different places.

Experiments:
Type in all cases: cell-based
Settings in all cases: geometric mean of at least 2 assay runs, † = single assay run
[1] = test system: Trypanosoma brucei Lister 427 VSG221 with APOL1 G0 recombinant protein; experiment: APOL1 G0 trypanosome cell rescue assay (Example B5)
Outline: (§1)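 Recombinant APOL1 protein, dispensed from a 2 μg/mL stock, and 250 T. brucei per well were co-incubated with test compound (0.4% DMSO) for 20 h. Viability: CellTiter-Glo luminescence.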

[2] = test system: Trypanosoma brucei Lister 427 VSG221 with APOL1 G1 recombinant protein; experiment: APOL1 G1 trypanosome cell rescue assay (Example B5)
Outline: as §1

[3] = test system: Trypanosoma brucei Lister 427 VSG221 with APOL1 G2 recombinant protein; experiment: APOL1 G2 trypanosome cell rescue assay (Example B5)
Outline: as §1

[4] = Trypanosoma brucei, 20 h, read-out: APOL1 G0 Trypanosome Rescue EC50, Trypanosoma brucei Lister 427 VSG221 with APOL1 G0 recombinant protein, 20 hours, CellTiter-Glo
[5] = Trypanosoma brucei, 20 h, read-out: APOL1 G1 Trypanosome Rescue EC50, Trypanosoma brucei Lister 427 VSG221 with APOL1 G1 recombinant protein, 20 hours, CellTiter-Glo
[6] = Trypanosoma brucei, 20 h, read-out: APOL1 G2 Trypanosome Rescue EC50, Trypanosoma brucei Lister 427 VSG221 with APOL1 G2 recombinant protein, 20 hours, CellTiter-Glo
[7] = read-out: APOL1 G0 Trypanosome Rescue EC50, Trypanosoma brucei Lister 427 VSG221 with APOL1 G0 recombinant protein, 20 hours, CellTiter-Glo
[8] = read-out: APOL1 G1 Trypanosome Rescue EC50, Trypanosoma brucei Lister 427 VSG221 with APOL1 G1 recombinant protein, 20 hours, CellTiter-Glo
[9] = read-out: APOL1 G2 Trypanosome Rescue EC50, Trypanosoma brucei Lister 427 VSG221 with APOL1 G2 recombinant protein, 20 hours, CellTiter-Glo

| SMILES | pEC50 [1, 4] | pEC50 [2, 5] | pEC50 [3, 6] | pEC50 [1, 7] | pEC50 [2, 8] | pEC50 [3, 9] |
| --- | --- | --- | --- | --- | --- | --- |
| CC(c1ccc(OCCN2CCC3(CC2)C(=O)Nc2ccc(Cl)cc23)cc1)S(C)(=O)=O (single isomer, unassigned) [Compound 39, 5-chloro-1′-(2-{4-[(1S) or (1R)-1-methanesulfonylethyl]phenoxy}ethyl)-1,2-dihydrospiro[indole-3,4′-piperidin]-2-one] | 6.81 | 6.69 | 7.28 |  |  |  |
| O=C1CCc2cc(OCCN3CCC4(CC3)C(=O)Nc3ccc(Cl)cc34)cnc2N1[C@H]1C[C@@H](CO)C1 (single isomer, unassigned) [Compound 319, 5-chloro-1′-[2-({7-oxo-8-[(cis)-3-(hydroxymethyl)cyclobutyl]-5,6,7,8-tetrahydro-1,8-naphthyridin-3-yl}oxy)ethyl]-1,2-dihydrospiro[indole-3,4′-piperidin]-2-one] | 7.16 | 7.09 | 7.57 |  |  |  |
| CC[C@]1(O)C[C@@H](N2C(=O)CCc3cc(OCCN4CCC5(CC4)C(=O)Nc4ccc(Cl)cc45)cnc32)C1 (single isomer, unassigned) [Compound 321, 5-chloro-1′-[2-({7-oxo-8-[(cis)-3-ethyl-3-hydroxycyclobutyl]-5,6,7,8-tetrahydro-1,8-naphthyridin-3-yl}oxy)ethyl]-1,2-dihydrospiro[indole-3,4′-piperidin]-2-one] | 7.40 | 7.34 | 7.84 |  |  |  |
| CC1(O)CC(CN2C(=O)CCc3cc(OCCN4CCC5(CC4)C(=O)Nc4ccc(Cl)cc45)cnc32)C1 (single isomer, unassigned) [Compound 322, 5-chloro-1′-{2-[(7-oxo-8-{[(trans) or (cis)-3-hydroxy-3-methylcyclobutyl]methyl}-5,6,7,8-tetrahydro-1,8-naphthyridin-3-yl)oxy]ethyl}-1,2-dihydrospiro[indole-3,4′-piperidin]-2-one] |  |  |  | 7.53 | 7.46 | 7.93 |
| C[C@]1(O)C[C@@H](n2ncc3cc(OCCN4CCC5(CC4)C(=O)Nc4ccc(Cl)cc45)cnc32)C1 (single isomer, unassigned) [Compound 357, 5-chloro-1′-[2-({1-[(cis)-3-hydroxy-3-methylcyclobutyl]-1H-pyrazolo[3,4-b]pyridin-5-yl}oxy)ethyl]-1,2-dihydrospiro[indole-3,4′-piperidin]-2-one] | 7.21 | 7.04 | 7.55 |  |  |  |
| CC1(O)CC(c2ncc(OCCN3CCC4(CC3)C(=O)Nc3ccc(Cl)cc34)cn2)C1 (single isomer, unassigned) [Compound 393, 5-chloro-1′-[2-({2-[(cis) or (trans)-3-hydroxy-3-methylcyclobutyl]pyrimidin-5-yl}oxy)ethyl]-1,2-dihydrospiro[indole-3,4′-piperidin]-2-one] |  |  |  | 6.52 | 6.44 | 6.92 |
| C[C@]1(O)C[C@H](n2ncc3cc(OCCN4CCC5(CC4)C(=O)Nc4ccc(Cl)cc45)cnc32)C1 (single isomer, unassigned) [Compound 408, 5-chloro-1′-[2-({1-[(trans)-3-hydroxy-3-methylcyclobutyl]-1H-pyrazolo[3,4-b]pyridin-5-yl}oxy)ethyl]-1,2-dihydrospiro[indole-3,4′-piperidin]-2-one] | 7.07 | 6.92 | 7.36 |  |  |  |
| C[C@]1(O)C[C@@H](N2C(=O)CCc3cc(OCCN4CCC5(CC4)C(=O)Nc4ccc(OC(F)F)cc45)cnc32)C1 [Cmpd 325, 5-(difluoromethoxy)-1′-[2-({7-oxo-8-[(cis)-3-hydroxy-3-methylcyclobutyl]-5,6,7,8-tetrahydro-1,8-naphthyridin-3-yl}oxy)ethyl]-1,2-dihydrospiro[indole-3,4′-piperidin]-2-one] | 6.67 | 6.57 | 7.11 |  |  |  |
| CC(c1ncc(OCCN2CCC3(CC2)C(=O)Nc2ccc(Cl)cc23)cn1)S(C)(=O)=O (stereo not drawn) [Compound 1, 5-Chloro-1′-(2-{[2-(1-methanesulfonylethyl)pyrimidin-5-yl]oxy}ethyl)-1,2-dihydrospiro[indole-3,4′-piperidin]-2-one] | 6.65 | 6.53 | 7.05 |  |  |  |
| CS(=O)(=O)C1(c2ncc(OCCN3CCC4(CC3)C(=O)Nc3ccc(Cl)cc34)cn2)CC1 [Compound 4, 5-chloro-1′-(2-{[2-(1-methanesulfonylcyclopropyl)pyrimidin-5-yl]oxy}ethyl)-1,2-dihydrospiro[indole-3,4′-piperidin]-2-one] | 6.94 | 6.77 | 7.28 |  |  |  |
| Cc1nc(-c2ccc(OCCN3CCC4(CC3)C(=O)N(C)c3ccccc34)cc2)no1 [Compound 35, 1-methyl-1′-{2-[4-(5-methyl-1,2,4-oxadiazol-3-yl)phenoxy]ethyl}-1,2-dihydrospiro[indole-3,4′-piperidin]-2-one] | < 5.40 | < 5.40 | < 5.40 |  |  |  |
| CC(=O)N1CCCc2cc(OCCN3CCC4(CC3)C(=O)N(C)c3ccccc34)ccc21 [Compound 36, 1′-{2-[(1-acetyl-1,2,3,4-tetrahydroquinolin-6-yl)oxy]ethyl}-1-methyl-1,2-dihydrospiro[indole-3,4′-piperidin]-2-one] | < 5.40 | < 5.40 | 5.77 |  |  |  |
| CS(=O)(=O)c1c(F)cc(OCCN2CCC3(CC2)C(=O)Nc2ccccc23)cc1F [Compound 42, 1′-[2-(3,5-difluoro-4-methanesulfonylphenoxy)ethyl]-1,2-dihydrospiro[indole-3,4′-piperidin]-2-one] | 5.90 | 5.73 | 6.39 |  |  |  |
| O=C1Nc2ccc(Cl)cc2C12CCN(CCOc1ccc(S(=O)(=O)C3CC3)cc1)CC2 [Compound 43, 5-chloro-1′-{2-[4-(cyclopropanesulfonyl)phenoxy]ethyl}-1,2-dihydrospiro[indole-3,4′-piperidin]-2-one] | 7.28 | 7.06 | 7.71 |  |  |  |
| O=C1Nc2ccccc2C12CCN(CCOc1ccc(S(=O)(=O)C(F)F)cc1)CC2 [Compound 44, 1′-[2-(4-difluoromethanesulfonylphenoxy)ethyl]-1,2-dihydrospiro[indole-3,4′-piperidin]-2-one] | 6.48 | 6.37 | 6.92 |  |  |  |
| NC(=O)c1ccc(OCCN2CCC3(CC2)C(=O)Nc2ccc(Cl)cc23)cc1 [Compound 45, 4-(2-{5-chloro-2-oxo-1,2-dihydrospiro[indole-3,4′-piperidin]-1′-yl}ethoxy)benzamide] | 6.32 | 6.13 | 6.79 |  |  |  |
| NC(=O)c1ccc(OCCN2CCC3(CC2)C(=O)Nc2ccc(Cl)cc23)cc1F [Compound 46, 4-(2-{5-chloro-2-oxo-1,2-dihydrospiro[indole-3,4′-piperidin]-1′-yl}ethoxy)-2-fluorobenzamide] | 6.81 | 6.67 | 7.30 |  |  |  |
| Cc1cc(OCCN2CCC3(CC2)C(=O)Nc2ccc(Cl)cc23)ccc1C(N)=O [Compound 49, 4-(2-{5-chloro-2-oxo-1,2-dihydrospiro[indole-3,4′-piperidin]-1′-yl}ethoxy)-2-methylbenzamide] | 6.67 | 6.52 | 6.96 |  |  |  |
| CS(=O)(=O)c1ccc(OCCN2CCC3(CC2)C(=O)Nc2ccc(Cl)cc23)cc1C#N [Compound 50, 5-(2-{5-chloro-2-oxo-1,2-dihydrospiro[indole-3,4′-piperidin]-1′-yl}ethoxy)-2-methanesulfonylbenzonitrile] | 7.52 | 7.35 | 7.99 |  |  |  |
| CS(=O)(=O)N1CCCc2cc(OCCN3CCC4(CC3)C(=O)Nc3ccc(Cl)cc34)ccc21 [Compound 53, 5-chloro-1′-{2-[(1-methanesulfonyl-1,2,3,4-tetrahydroquinolin-6-yl)oxy]ethyl}-1,2-dihydrospiro[indole-3,4′-piperidin]-2-one] | 6.81 | 6.80 | 7.32 |  |  |  |
| CC(=O)N1CCCc2cc(OCCN3CCC4(CC3)C(=O)Nc3ccc(Cl)cc34)ccc21 [Compound 56, 1′-{2-[(1-acetyl-1,2,3,4-tetrahydroquinolin-6-yl)oxy]ethyl}-5-chloro-1,2-dihydrospiro[indole-3,4′-piperidin]-2-one] | 6.53 | 6.50 | 6.92 |  |  |  |
| CC(=O)N1Cc2ccc(OCCN3CCC4(CC3)C(=O)Nc3ccc(Cl)cc34)cc2C1 [Compound 57, 1′-{2-[(2-acetyl-2,3-dihydro-1H-isoindol-5-yl)oxy]ethyl}-5-chloro-1,2-dihydrospiro[indole-3,4′-piperidin]-2-one] | 6.17 | 6.17 | 6.74 |  |  |  |
| CNC(=O)N1CCCc2cc(OCCN3CCC4(CC3)C(=O)Nc3ccc(Cl)cc34)ccc21 [Compound 60, 6-(2-{5-chloro-2-oxo-1,2-dihydrospiro[indole-3,4′-piperidin]-1′-yl}ethoxy)-N-methyl-1,2,3,4-tetrahydroquinoline-1-carboxamide] | 6.72 | 6.64 | 7.18 |  |  |  |
